Laboratory results: patent US20220249597A1, “MIF INHIBITORS AND METHODS OF USE THEREOF” (The Johns Hopkins University, priority 2016, published 2022)
{Biotin} = biotin label

Experiments:
[1] = molecular target: T1, MIF (Homo sapiens, UniProt P14174); assay: MIF nuclease assay with small DNA substrates; format: biochemical; set-up: GST (N, cleaved yes); made in house; host or cells: Escherichia coli; key to Endo-Nuclease Activity / Exo-Nuclease Activity: Y:yes; N:no; details: for Endo-Nuclease Activity / Exo-Nuclease Activity: MIF on the listed DNA substrate; for MIF cleavage of DNA substrate: single or double stranded substrates, ds substrates MIF 1-4 μM
T1 sequence (P14174 2-115 limits assumed): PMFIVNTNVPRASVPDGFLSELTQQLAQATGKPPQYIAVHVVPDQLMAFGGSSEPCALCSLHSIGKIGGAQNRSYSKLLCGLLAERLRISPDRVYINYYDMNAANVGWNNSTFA
Text: (§1) Human endoG (NM_004435), cyclophilin A (NM_021130), mouse AIF (NM_012019), human MIF (NM_002415) cDNA and their variants were subcloned into glutathione S-transferase (GST)-tagged pGex-6P-1 vector (GE Healthcare) by EcoRI and XhoI restriction sites and verified by sequencing. The protein was expressed and purified from Escherichia coli by glutathione Sepharose. The GST tag was subsequently proteolytically removed for the nuclease assay. MIF point mutants were constructed by polymerase chain reaction (PCR) and verified by sequencing. The purity of MIF proteins that were used in the nuclease assays was further confirmed by mass spectrometry. MIF proteins purified by FPLC were also used in the nuclease assays and no obvious difference was observed between FPLC MIF and non-FPLC MIF proteins. GST protein was used as a negative control in the nuclease assay.

[2] = molecular target: T1, MIF; assay: Electrophoretic mobility shift assay (EMSA) of MIF with biotin-labeled DNA substrates; format: binding; set-up: GST (N, cleaved yes); made in house; host or cells: Escherichia coli; details: 5′ biotin labeled single stranded substrates, 10 mM Mg2+
Experimental: EMSA assay was performed using LightShift Chemiluminescent EMSA kit (Thermo Scientific) following the manufactures instruction. Briefly, purified MIF protein (2 μM) was incubated with biotin-labeled DNA substrates (10 nM) in the binding buffer containing 10 mM MgCl2 for 30 min on ice. Then samples were separated on 6% retardation polyacrylamide followed by electrophoretic transfer to nylon membrane.
as §1

[3] = test system: HeLa cells; assay: Pulse-field gel electrophoresis assay of MNNG-induced DNA damage in HeLa cells; format: cell-based, human; details: DPQ 30 μM; ISO-1 100 μM
Text: FIGS. 2A-2D. FIG. 2. MIF is a novel nuclease that cleaves genomic DNA.

[4] = molecular target: T1, MIF; details: Mg2+ 10 mM with EDTA 50 mM or Ca2+ 2 mM with EDTA 25 mM
Experimental: (A) In vitro MIF nuclease assay using pcDNA as substrate. […] (C) Pulse-field gel electrophoresis assay of MNNG-induced DNA damage in MIF deficient HeLa cells and wild type HeLa cells treated with or without DPQ (30 μM) or ISO-1 (100 μM).
The reaction was terminated with loading buffer containing 10 mM EDTA and incubation on ice. […] Small DNA substrates were separated on 15% or 25% TBE-urea polyacrylamide (PAGE) gel or 20% TBE PAGE gel. Then gel was stained with 0.5 μg/ml Ethidium Bromide (EtBr) followed by electrophoretic transfer to nylon membrane. Then, Biotin-labeled DNA is further detected by chemiluminescence using Chemiluminescent Nucleic Acid Detection Module (Thermo Scientific).

Molecule | Endo-Nuclease Activity [1] | Exo-Nuclease Activity [1] | MIF binding to ssDNA substrate (DNA/MIF complex formation) [2] | MIF cleavage of DNA substrate [1] | Effect on MNNG induced DNA damage / DNA cleavage [3] | Effect on MIF nuclease activity against human genomic DNA [4]
m4: 5′ biotin ssDNA MIF substrate, SEQ ID NO: 81 (DNA CTCAGCCAAAAAAATAGCTGGGATTACAGG; DNA, 5' {Biotin}, backbone and methylation of C not given here) | Y | Y | – | – | – | –
m11: 5′ biotin ssDNA MIF substrate, SEQ ID NO: 88 (DNA CTCAGCCTCCCAAGTAAAAGGGATTACAGG; DNA, 5' {Biotin}, backbone and methylation of C not given here) | Y | Y | – | – | – | –
m8: 5′ biotin ssDNA MIF substrate, SEQ ID NO: 85 (DNA CTCAAAATCCCAAAAAAAAGGGATTACAGG; DNA, 5' {Biotin}, backbone and methylation of C not given here) | Y | Y | – | – | – | –
m3: 5′ biotin ssDNA MIF substrate, SEQ ID NO: 80 (DNA CTCAGCCTCCCAAGTAGCTGAAAAAAAAAA; DNA, 5' {Biotin}, backbone and methylation of C not given here) | Y | Y | – | – | – | –
m7: 5′ biotin ssDNA MIF substrate, SEQ ID NO: 84 (DNA AAAAGCCTCCCAAGTAGCTGGGATTACAGG; DNA, 5' {Biotin}, backbone and methylation of C not given here) | Y | Y | – | – | – | –
m6: 5′ biotin ssDNA MIF substrate, SEQ ID NO: 83 (DNA CTCAAAAAAACAAGTAGCTGGGATTACAGG; DNA, 5' {Biotin}, backbone and methylation of C not given here) | Y | Y | – | – | – | –
L3: 5′ biotin non-related sequence with stem loop like structure, SEQ ID NO: 13 (DNA ACCTAAATGCTAGAGCTCGCTGATCAGCCT; DNA, 5' {Biotin}, backbone and methylation of C not given here) | Y | Y | weakly binds | cleaved by MIF, but with less efficiency | – | –
m14: 5′ biotin ssDNA MIF substrate, SEQ ID NO: 90 (DNA CTCAGCCTCCCAAGTAAACGGGATTACAGG; DNA, 5' {Biotin}, backbone and methylation of C not given here) | Y | Y | – | – | – | –
SL: 5′ biotin ssDNA MIF substrate, SEQ ID NO: 6 (DNA CCTGTAATCCCAAGTAGCTGGGATTACAGG; DNA, 5' {Biotin}, backbone and methylation of C not given here) | N | N | – | – | – | –
m10: 5′ biotin ssDNA MIF substrate, SEQ ID NO: 87 (DNA CTCAGCCTCCGGATTACAGGCAAGTAGCTG; DNA, 5' {Biotin}, backbone and methylation of C not given here) | Y | Y | – | – | – | –
m15: 5′ biotin ssDNA MIF substrate, SEQ ID NO: 91 (DNA CTCAGCCTCCCAAGTAGCAGGGATTACAGG; DNA, 5' {Biotin}, backbone and methylation of C not given here) | Y | Y | – | – | – | –
COC(=O)CC1CC(c2ccc(O)cc2)=NO1 (stereo not drawn) [ISO-1] | – | – | – | – | fails to prevent MNNG induced DNA damage | –
BS2: 5′ biotin ssDNA MIF substrate, SEQ ID NO: 96 (DNA TGGGATTACAGGCGTGAGCCACCACGCCC; DNA, 5' {Biotin}, backbone and methylation of C not given here) | Y | Y | – | – | – | –
RF: 5′ biotin ssDNA MIF substrate, SEQ ID NO: 8 (DNA TCCCAAGTAGCTGGGATTACAGGAAAAAAA; DNA, 5' {Biotin}, backbone and methylation of C not given here) | Y | Y | reduces the DNA-MIF binding | – | – | –
m18: 5′ biotin ssDNA MIF substrate, SEQ ID NO: 94 (DNA CTCAATTTCCCAAGTAGCTGGGATTACAGG; DNA, 5' {Biotin}, backbone and methylation of C not given here) | Y | Y | – | – | – | –
m16: 5′ biotin ssDNA MIF substrate, SEQ ID NO: 92 (DNA CTCAGCCTCCCTTGTAGCTGGGATTACAGG; DNA, 5' {Biotin}, backbone and methylation of C not given here) | Y | Y | – | – | – | –
m12: 5′ biotin ssDNA MIF substrate, SEQ ID NO: 89 (DNA CTCAGCCTCCCAAGTAAATGGGATTACAGG; DNA, 5' {Biotin}, backbone and methylation of C not given here) | Y | Y | – | – | – | –
m9: 5′ biotin ssDNA MIF substrate, SEQ ID NO: 86 (DNA CAAGTAGCTGCTCAGCCTCCGGATTACAGG; DNA, 5' {Biotin}, backbone and methylation of C not given here) | Y | Y | – | – | – | –
m2: 5′ biotin ssDNA MIF substrate, SEQ ID NO: 79 (DNA CTCAGCCTCCAAAAAAAAAAGGATTACAGG; DNA, 5' {Biotin}, backbone and methylation of C not given here) | Y | Y | – | – | – | –
O=C(O)CN(CCN(CC(=O)O)CC(=O)O)CC(=O)O [EDTA] | – | – | – | – | – | blocks MIF's nuclease activity
m20: 5′ biotin ssDNA MIF substrate, SEQ ID NO: 95 (DNA AAAAATCTCAGCCTCCCAAGTAGCTGGGAT; DNA, 5' {Biotin}, backbone and methylation of C not given here) | Y | Y | – | – | – | –
3F1: 5′ biotin ssDNA MIF substrate, SEQ ID NO: 12 (DNA AAAAAAAAAACAAGTAGCTGGGATTACAGG; DNA, 5' {Biotin}, backbone and methylation of C not given here) | Y | Y | clearly binds | – | – | –
PA^30: 5′ biotin-poly A, SEQ ID NO: 9 | N | Y | fails to bind | cleave | – | –
m5: 5′ biotin ssDNA MIF substrate, SEQ ID NO: 82 (DNA CTCAGCCTCCCAAAAAAAAGGGATTACAGG; DNA, 5' {Biotin}, backbone and methylation of C not given here) | Y | Y | – | – | – | –
LF: 5′ biotin ssDNA MIF substrate, SEQ ID NO: 7 (DNA AAAAAAACTCAGCCTCCCAAGTAGCTGGGA; DNA, 5' {Biotin}, backbone and methylation of C not given here) | N | N | no obvious effect on the DNA/MIF complex formation | – | – | –
m17: 5′ biotin ssDNA MIF substrate, SEQ ID NO: 93 (DNA CTCAAAATCCCAAGTAGCTGGGATTACAGG; DNA, 5' {Biotin}, backbone and methylation of C not given here) | Y | Y | – | – | – | –
